Like-named read-outs stand apart in the source and are kept apart here.
Legend:
[1] = Safety: treatment-related adverse events and dose-limiting toxicities, phase 1 dose escalation; assay type: in vivo, human
Description: Example 3 reports Clinical and Genomics Analysis of a single trial. The Study Population in Example 3 was as follows: • Women ≥18 years old with locally advanced or metastatic ER+HER2−BC. • Progression on at least one hormonal therapy and at least one additional therapy/regimen; no maximum number of prior lines of therapy. • ECOG performance status of 0 or 1. • Adequate bone marrow and organ function. • Excluded if had bone-only disease or inflammatory BC.
Methods were used to analyze whether H3B-6545 inactivates both wild-type and mutant ERα by targeting cysteine 530 and enforcing a unique antagonist conformation. Methods: Women with locally advanced or metastatic HR+BC are treated (tx) with H3B-6545 drug product administered once daily orally by capsule over a 28 day cycle after progression on at least one hormonal therapy and at least one additional therapy/regimen. Dose escalation uses a 3+3 design with the option to backfill previously cleared doses and allows for intrapatient dose escalation. This example explored the safety, pharmacokinetics and pharmacodynamics of H3B-6545 in women with HR+BC to identify a recommended subsequent dose for testing.
• H3B-6545 administered once daily orally over a 28 day cycle. • Dose escalation using a standard 3+3 study design using dose cohorts of 100, 200, 300, 450, and 600 mg QD. • Patients allowed to backfill previously cleared doses. • Intra-patient dose escalation allowed after completion of Cycle 3. […]

[2] = Plasma PK of capsules vs tablets in healthy human subjects, relative bioavailability; assay type: in vivo; conditions: capsules and tablets
Protocol: (§1) Blood samples were collected at the planned time points from each patient and centrifuged. The plasma portion of each sample was then transferred to a K2EDTA tube, which was then shipped to a bioanalytical lab for concentration measurement using LC-MS/MS. The concentration data were then analyzed using Phoenix® WinNonlin software to obtain PK parameters. The obtained PK parameters were further summarized using analytical software.
(§2) Blood samples (approximately 5 mL each) were collected from human patients pre-dose and at various hourly time points post-dose. Plasma concentrations of H3B-6545 were determined using a validated high-performance liquid chromatography/tandem mass spectrometry (LC-MS/MS) method. The lower limit of quantification was 0.100 ng/mL.
The PK Analysis Set included subjects who received H3B-6545 drug product in capsules or tablets and had sufficient evaluable plasma concentration data to derive at least 1 primary PK parameter in each treatment. […]
Pharmacokinetic parameters of H3B-6545 were calculated using noncompartmental methods, using an appropriate model for plasma data and extravascular administration. The PK parameters included, but were not limited to, area under the curve to the time of the last quantifiable concentration (AUC0-t), maximum concentration (Cmax), and time at which the maximum concentration occurred (tmax). […]

[3] = Plasma PK of 450 mg capsules in fasted and fed patients, dose expansion; assay type: in vivo, human; conditions: 450 mg QD capsules; for CLss/F / AUC(0-inf) / Cmax / half-life / AUC(0-t) / Vd / Vd/F: Geometric Mean (GeoCV %); for Tlag / Tmax: Median (Min, Max); for AUC0-24 (per 1 mg of API) / AUC0-inf (per 1 mg of API) / AUC0-t (per 1 mg of API) / Cmax (per 1 mg of API): normalized from Table 13; for AUC(0-inf) / Cmax / half-life / AUC(0-t) / Vd / Vd/F / Tmax: human, plasma, oral, 450 mg; for Vd: read-out: Vss; for Vd/F: read-out: Vz/F
Protocol: as §1, §2
The PK Analysis Set included subjects who received H3B-6545 drug product in capsules or tablets and had sufficient evaluable plasma concentration data to derive at least 1 primary PK parameter in each treatment. Plasma concentrations of H3B-6545 (as free base) were tabulated and summarized at each nominal time using descriptive statistics (number of subjects, arithmetic mean with standard deviation [SD], coefficient of variation [CV %], geometric mean, median, minimum, and maximum) as appropriate. Individual and mean (±SD) plasma concentration-time profiles were provided for each treatment.
Pharmacokinetic parameters of H3B-6545 were calculated using noncompartmental methods, using an appropriate model for plasma data and extravascular administration. The PK parameters included, but were not limited to, area under the curve to the time of the last quantifiable concentration (AUC0-t), maximum concentration (Cmax), and time at which the maximum concentration occurred (tmax). If data permitted, the area under the plasma concentration-time curve extrapolated to infinity (AUC0-inf), terminal elimination half-life (t1/2), apparent total body clearance (CL/F), total systemic clearance after oral administration at steady state (CLss/F), apparent volume of distribution during the terminal phase (Vz/F), apparent steady-state volume of distribution (Vss), accumulation ratio for Cmax (RCmax) and accumulation ratio of AUC0-24 (RAUC) were also derived.
Table 3 details PK parameters and profiles of human patients receiving capsules prepared as in Example 1. Patients received a total equivalent dosage of 450 mg of Formula I, as identified in Table 13. Table 14 has normalized the AUC0-t, AUC0-24, AUC0-inf and Cmax PK parameters illustrated in Table 13 to plasma PK parameters per 1 mg of active pharmaceutical ingredient (API).

[4] = 100 mg QD (N = 6), as of Apr. 20, 2019
[5] = 200 mg QD (N = 12), as of Apr. 20, 2019
[6] = 300 mg QD (N = 11), as of Apr. 20, 2019
[7] = 450 mg QD (N = 10), as of Apr. 20, 2019
[8] = 600 mg QD (N = 7), as of Apr. 20, 2019
[9] = Total (N = 46), 100 to 600 mg QD, as of Apr. 20, 2019
[10] = as of Apr. 20, 2019, 100 to 600 mg QD

Structure (SMILES): CN(C)C(=O)/C=C/CNCCOc1ccc(/C(=C(/CC(F)(F)F)c2ccccc2)c2ccc3[nH]nc(F)c3c2)cn1 [H3B-6545, (E)-N,N-dimethyl-4-[2-[5-[(Z)-4,4,4-trifluoro-1-(3-fluoro-1H-indazol-5-yl)-2-phenylbut-1-enyl]pyridin-2-yl]oxyethylamino]but-2-enamide]
- Subjects with any TRAE [1, 4]: 4
- TRAE Anaemia, subjects [1, 4]: 0
- TRAE Aspartate aminotransferase increased, subjects [1, 4]: 0
- TRAE Diarrhoea, subjects [1, 4]: 1
- TRAE Fatigue, subjects [1, 4]: 1
- TRAE Nausea, subjects [1, 4]: 1
- TRAE Sinus bradycardia, subjects [1, 4]: 0
- Subjects with any TRAE [1, 5]: 6
- TRAE Anaemia, subjects [1, 5]: 1
- TRAE Aspartate aminotransferase increased, subjects [1, 5]: 1
- TRAE Diarrhoea, subjects [1, 5]: 1
- TRAE Fatigue, subjects [1, 5]: 2
- TRAE Nausea, subjects [1, 5]: 0
- TRAE Sinus bradycardia, subjects [1, 5]: 2
- Subjects with any TRAE [1, 6]: 9
- TRAE Anaemia, subjects [1, 6]: 2
- TRAE Aspartate aminotransferase increased, subjects [1, 6]: 1
- TRAE Diarrhoea, subjects [1, 6]: 2
- TRAE Fatigue, subjects [1, 6]: 3
- TRAE Nausea, subjects [1, 6]: 3
- TRAE Sinus bradycardia, subjects [1, 6]: 7
- Subjects with any TRAE [1, 7]: 9
- TRAE Anaemia, subjects [1, 7]: 3
- TRAE Aspartate aminotransferase increased, subjects [1, 7]: 1
- TRAE Diarrhoea, subjects [1, 7]: 3
- TRAE Fatigue, subjects [1, 7]: 1
- TRAE Nausea, subjects [1, 7]: 4
- TRAE Sinus bradycardia, subjects [1, 7]: 3
- Subjects with any TRAE [1, 8]: 5
- TRAE Anaemia, subjects [1, 8]: 1
- TRAE Aspartate aminotransferase increased, subjects [1, 8]: 2
- TRAE Diarrhoea, subjects [1, 8]: 0
- TRAE Fatigue, subjects [1, 8]: 1
- TRAE Nausea, subjects [1, 8]: 1
- TRAE Sinus bradycardia, subjects [1, 8]: 0
- dose-limiting toxicity (DLT)s, number ([1]; 600 mg QD cohort, Grade 3 fatigue and Grade 3 rash morbilliform, as of Apr. 20, 2019): Two
- sinus bradycardia, dose or concentration dependence ([1]; 46 patients, 100 to 600 mg QD): does not appear to be dose- or concentration-dependent
- TRAEs ≥Grade 4 ([1]; 46 patients, 100 to 600 mg QD, as of Apr. 20, 2019): no TRAEs ≥Grade 4
- Grade 3 TRAEs, number ([1]; 46 patients, 100 to 600 mg QD, two at 450 mg, four at 600 mg, as of Apr. 20, 2019): Six
- Subjects with any TRAE [1, 9]: 33
- TRAE Anaemia, subjects [1, 9]: 7
- TRAE Aspartate aminotransferase increased, subjects [1, 9]: 5
- TRAE Diarrhoea, subjects [1, 9]: 7
- TRAE Fatigue, subjects [1, 9]: 8
- TRAE Nausea, subjects [1, 9]: 9
- TRAE Sinus bradycardia, subjects [1, 9]: 12
- dose-limiting toxicities ([1]; as of 10 Dec. 2018, 32 patients, 100 to 450 mg/day): No dose-limiting toxicities
- Grade 3 treatment related adverse events (TRAE), number ([1]; as of 10 Dec. 2018, 32 patients, 100 to 450 mg/day, lymphocyte count decrease): one
- tolerability ([1]; as of 10 Dec. 2018, H3B-6545 drug product): well-tolerated up to the 450 mg dose level
- grade of TRAEs [1, 10]: Most TRAEs were grade 1 or 2 and manageable
- tolerated dose [1, 10]: tolerated up to and including 450 mg QD
- tolerability [2]: well-tolerated
- CLss/F ([3]; Dose Expansion-Fasted): 36.7 (65.4); 18 L/h
- Tlag ([3]; Dose Expansion-Fasted): 0 (0-0); 18 h
- AUC0-24 (per 1 mg of API) ([3]; Dose Expansion-Fasted): 27.2 ng·h/mL/mg
- AUC0-inf (per 1 mg of API) ([3]; Dose Expansion-Fasted): 36.6 ng·h/mL/mg
- AUC0-t (per 1 mg of API) ([3]; Dose Expansion-Fasted): 27.7 ng·h/mL/mg
- Cmax (per 1 mg of API) ([3]; Dose Expansion-Fasted): 2.4 ng/mL/mg
- CLss/F ([3]; Dose Expansion-Fed): 20.5 (42.7); 13 L/h
- Tlag ([3]; Dose Expansion-Fed): 0 (0-0); 17 h
- AUC0-24 (per 1 mg of API) ([3]; Dose Expansion-Fed): 43.3 ng·h/mL/mg
- AUC0-inf (per 1 mg of API) ([3]; Dose Expansion-Fed): 56.8 ng·h/mL/mg
- AUC0-t (per 1 mg of API) ([3]; Dose Expansion-Fed): 35.8 ng·h/mL/mg
- Cmax (per 1 mg of API) ([3]; Dose Expansion-Fed): 3.5 ng/mL/mg
- AUC(0-inf) ([3]; Dose Expansion-Fasted): 16500 ng·h/mL
- Cmax ([3]; Dose Expansion-Fasted): 1090 ng/mL
- half-life ([3]; Dose Expansion-Fasted): 10.9 h
- AUC(0-t) ([3]; Dose Expansion-Fasted, read-out: AUC0-24): 12300 ng·h/mL
- AUC(0-t) ([3]; Dose Expansion-Fasted, read-out: AUC0-t): 12500 ng·h/mL
- Vd ([3]; Dose Expansion-Fasted): 597 L
- Vd/F ([3]; Dose Expansion-Fasted): 566 L
- Tmax ([3]; Dose Expansion-Fasted): 4 h
- AUC(0-inf) ([3]; Dose Expansion-Fed): 25500 ng·h/mL
- Cmax ([3]; Dose Expansion-Fed): 1560 ng/mL
- half-life ([3]; Dose Expansion-Fed): 8.83 h
- AUC(0-t) ([3]; Dose Expansion-Fed, read-out: AUC0-24): 19500 ng·h/mL
- AUC(0-t) ([3]; Dose Expansion-Fed, read-out: AUC0-t): 16100 ng·h/mL
- Vd ([3]; Dose Expansion-Fed): 350 L
- Vd/F ([3]; Dose Expansion-Fed): 279 L
- Tmax ([3]; Dose Expansion-Fed): 6 h
